This is an account of results in patent US9701664B2, “Fused 1,4-dihydrodioxin derivatives as inhibitors of heat shock transcription factor 1” (Cancer Research Technology Limited, priority 2013, dated 2017).

As a reminder, the IC50 is the concentration needed to halve the response being measured. Read a high IC50 as lower potency.

For one assay, the system named is HSP72 in U2OS cells. As to the kind of experiment: Cell-based ELISA (Cellisa) assay, U2OS cells: inhibition of 17-AAG-induced HSP72. Conditions: Homo sapiens; U2OS cells (Examples 1-168). Here is the method: U2OS cells (5-8×10^4 cells/mL) or SK-OV-3 cells (5-8×10^4 cells/mL) were seeded into 96-well plates and incubated at 37° C. for 48 h. Compounds were then added at a range of concentrations and incubated for 1 h before addition of 17-AAG (250 nM). Cells were then incubated for 18 h. The medium was removed washed 2× with PBS and cells were then fixed with fixing solution (4% paraformaldehyde, 0.3% TritonX-100 in PBS) for 30 min at 4° C. The plates were then washed 2× with PBS before blocking with 5% milk for 30 min at 37° C. After washing the plates 4× with 0.1% Tween-20/deionised water, HSP72 antibody (SPA-810, Enzo Life) was added for 1.5 h at 37° C. Following 4× washes, the plates were incubated with europium-labelled anti-mouse antibody (0.6 ug/ml) in Delfia assay buffer (Perkin Elmer) for 1 h at 37° C. After washing the plates, Delfia enhancement solution was added, shaken for 10 min before reading in the Envision plate reader (Perkin-Elmer) with excitation at 340 nm and emission at 615 nm. The plates were washed again before protein determination using the bicinchoninic acid assay (BCA assay, Pierce Biotechnology). The europium counts were normalised for the amount of protein in each well. The 50% inhibitory concentration value of the compound was then calculated.
In general terms: In an ELISA, binding on a coated surface is turned into a signal by an enzyme label.

The next assay has as its system U2OS cells. As to the kind of experiment: Titre Blue cell viability assay, U2OS cells. The assay is classed as cell-based. Conditions: Homo sapiens, U2OS.

For the molecule `Cc1ccc(NC(=O)c2ccc3c(c2)OCCO3)cc1NC(=O)c1ccc2sccc2c1` [Example 18, N-(3-(benzo[b]thiophene-5-carboxamido)-4-methylphenyl)-2,3-dihydrobenzo[b][1,4]dioxine-6-carboxamide], the IC50 in the assay with HSP72 in U2OS cells was 62 nM; with U2OS cells it was 34 nM.

With `Cc1ccc(NC(=O)c2ccc3c(c2)OCCO3)cc1NC(=O)c1ccc(OCc2ccccn2)cc1` [Example 19, N-(4-methyl-3-(4-(pyridin-2-ylmethoxy)benzamido)phenyl)-2,3-dihydrobenzo[b][1,4]dioxine-6-carboxamide], the half-maximal inhibitory concentration (IC50) with HSP72 in U2OS cells was 289 nM; in the assay with U2OS cells, 320 nM.

As to `Cc1ccc(NC(=O)c2ccc3c(c2)OCCO3)cc1NC(=O)c1ccc2nc(OCCNC(=O)OC(C)(C)C)ccc2c1` [Example 21, tert-butyl (2-((6-((5-(2,3-dihydrobenzo[b][1,4]dioxine-6-carboxamido)-2-methylphenyl)carbamoyl)quinolin-2-yl)oxy)ethyl)carbamate], the 50% inhibitory concentration (IC50) with HSP72 in U2OS cells amounted to 141 nM; with U2OS cells, 84 nM.

For the molecule `Cc1ccc(NC(=O)c2ccc3c(c2)OCCO3)cc1NC(=O)c1ccc2nccc(C#N)c2c1` [Example 24, 4-cyano-N-(5-(2,3-dihydrobenzo[b][1,4]dioxine-6-carboxamido)-2-methylphenyl)quinoline-6-carboxamide], the values for the IC50 in the assay on HSP72 in U2OS cells and with U2OS cells were 174 nM and 169 nM, respectively.

Turning to `Cc1ccc(NC(=O)c2ccc3c(c2)OCCO3)cc1NC(=O)c1ccc(OCc2ccccn2)nc1` [Example 25, N-(5-(2,3-dihydrobenzo[b][1,4]dioxine-6-carboxamido)-2-methylphenyl)-6-(pyridin-2-ylmethoxy)nicotinamide], the values for the IC50 in the assay on HSP72 in U2OS cells and in the assay on U2OS cells were 1610 nM and 1130 nM, respectively.

As for `COc1ccc(C(=O)Nc2cc(NC(=O)c3ccc4c(c3)OCCO4)ccc2C)cc1C` [Example 26, N-(3-(4-methoxy-3-methylbenzamido)-4-methylphenyl)-2,3-dihydrobenzo[b][1,4]dioxine-6-carboxamide], the IC50 with HSP72 in U2OS cells stood at 262 nM; with U2OS cells, 71 nM.

With `COc1ccc(C(=O)Nc2cc(NC(=O)c3ccc4c(c3)OCCO4)ccc2C)cc1` [Example 27, N-(3-(4-methoxybenzamido)-4-methylphenyl)-2,3-dihydrobenzo[b][1,4]dioxine-6-carboxamide], the figures for the 50% inhibitory concentration (IC50) in the assay with HSP72 in U2OS cells and in the assay on U2OS cells were 371 nM and 106 nM, respectively.

Take `COc1ccc(C(=O)Nc2cc(NC(=O)c3ccc4c(c3)OCCO4)ccc2C)cc1Cl` [Example 28, N-(3-(3-chloro-4-methoxybenzamido)-4-methylphenyl)-2,3-dihydrobenzo[b][1,4]dioxine-6-carboxamide]: the values for the IC50 with HSP72 in U2OS cells and with U2OS cells were 416 nM and 415 nM, respectively.

Turning to `COc1ccc2cc(C(=O)Nc3cc(NC(=O)c4ccc5c(c4)OCCO5)ccc3C)ccc2n1` [Example 29, N-(5-(2,3-dihydrobenzo[b][1,4]dioxine-6-carboxamido)-2-methylphenyl)-2-methoxyquinoline-6-carboxamide], the half-inhibitory concentration (IC50) worked out at 499 nM in the assay on HSP72 in U2OS cells and 626 nM with U2OS cells.

Regarding `CNC(=O)c1ccc(C(=O)Nc2cc(NC(=O)c3ccc4c(c3)OCCO4)ccc2C)cn1` [Example 33, N5-(5-(2,3-dihydrobenzo[b][1,4]dioxine-6-carboxamido)-2-methylphenyl)-N2-methylpyridine-2,5-dicarboxamide], the IC50 in the assay on HSP72 in U2OS cells came to 797 nM; in the assay on U2OS cells it was 230 nM.

For `Cc1ccc(NC(=O)c2ccc3c(c2)OCCO3)cc1NC(=O)c1ccc2c(c1)CCCC2` [Example 34, N-(4-methyl-3-(5,6,7,8-tetrahydronaphthalene-2-carboxamido)phenyl)-2,3-dihydrobenzo[b][1,4]dioxine-6-carboxamide], the IC50 in the assay on HSP72 in U2OS cells is 850 nM; with U2OS cells, 413 nM.

As for `Cc1ccc(NC(=O)c2ccc3c(c2)OCCO3)cc1NC(=O)c1ccc2nc(OCCCNC(=O)OC(C)(C)C)ccc2c1` [Example 35, tert-butyl (3-((6-((5-(2,3-dihydrobenzo[b][1,4]dioxine-6-carboxamido)-2-methylphenyl)carbamoyl)quinolin-2-yl)oxy)propyl)carbamate], the half-inhibitory concentration (IC50) with HSP72 in U2OS cells amounted to 867 nM; in the assay on U2OS cells it was 432 nM.

In the case of `Cc1ccc(NC(=O)c2ccc3c(c2)OCCO3)cc1NC(=O)c1ccc2nccnc2c1` [Example 36, N-(5-(2,3-dihydrobenzo[b][1,4]dioxine-6-carboxamido)-2-methylphenyl)quinoxaline-6-carboxamide], the IC50 with HSP72 in U2OS cells worked out at 1150 nM; in the assay on U2OS cells, 567 nM.

With `COc1cc(C(=O)Nc2cc(NC(=O)c3ccc4c(c3)OCCO4)ccc2C)ccc1Br` [Example 41, N-(3-(4-bromo-3-methoxybenzamido)-4-methylphenyl)-2,3-dihydrobenzo[b][1,4]dioxine-6-carboxamide], the figures for the IC50 in the assay on HSP72 in U2OS cells and in the assay on U2OS cells were 104 nM and 154 nM, respectively.

As to `COc1c(C)cc(C(=O)Nc2cc(NC(=O)c3ccc4c(c3)OCCO4)ccc2C)cc1C` [Example 42, N-(3-(4-methoxy-3,5-dimethylbenzamido)-4-methylphenyl)-2,3-dihydrobenzo[b][1,4]dioxine-6-carboxamide], the half-inhibitory concentration (IC50) stood at 546 nM in the assay with HSP72 in U2OS cells and 665 nM in the assay with U2OS cells.

Regarding `Cc1ccc(NC(=O)c2ccc3c(c2)OCCO3)cc1NC(=O)c1cnc2ccncc2c1` [Example 43, N-(5-(2,3-dihydrobenzo[b][1,4]dioxine-6-carboxamido)-2-methylphenyl)-1,6-naphthyridine-3-carboxamide], the results for the IC50 in the assay on HSP72 in U2OS cells and with U2OS cells were 22 nM and 34 nM, respectively.

For `Cc1ccc(NC(=O)c2ccc3c(c2)OCCO3)cc1NC(=O)c1cnc2cnccc2c1` [Example 44, N-(5-(2,3-dihydrobenzo[b][1,4]dioxine-6-carboxamido)-2-methylphenyl)-1,7-naphthyridine-3-carboxamide], the values for the IC50 in the assay with HSP72 in U2OS cells and with U2OS cells were 11 nM and 24 nM, respectively.

As to `Cc1ccc(NC(=O)c2ccc3c(c2)OCCO3)cc1NC(=O)c1cnc2ncccc2c1` [Example 45, N-(5-(2,3-dihydrobenzo[b][1,4]dioxine-6-carboxamido)-2-methylphenyl)-1,8-naphthyridine-3-carboxamide], the IC50 in the assay on HSP72 in U2OS cells was found to be 36 nM; in the assay with U2OS cells, 85 nM.

With `Cc1ccc(NC(=O)c2ccc3c(c2)OCCO3)cc1NC(=O)c1ccc2cnccc2c1` [Example 46, N-(5-(2,3-dihydrobenzo[b][1,4]dioxine-6-carboxamido)-2-methylphenyl)isoquinoline-6-carboxamide], the 50% inhibitory concentration (IC50) in the assay on HSP72 in U2OS cells amounted to 4 nM; in the assay with U2OS cells it was 12 nM.

On to `Cc1ccc(NC(=O)c2ccc3c(c2)OCCO3)cc1NC(=O)c1cnc2ccccc2c1` [Example 47, N-(5-(2,3-dihydrobenzo[b][1,4]dioxine-6-carboxamido)-2-methylphenyl)quinoline-3-carboxamide], for which the IC50 in the assay on HSP72 in U2OS cells turned out to be 4 nM; with U2OS cells it was 12 nM.

For `Cc1ccc(NC(=O)c2ccc3c(c2)OCCO3)cc1NC(=O)c1ccc2[nH]c(=O)ccc2c1` [Example 48, N-(5-(2,3-dihydrobenzo[b][1,4]dioxine-6-carboxamido)-2-methylphenyl)-2-oxo-1,2-dihydroquinoline-6-carboxamide], the figures for the 50% inhibitory concentration (IC50) in the assay with HSP72 in U2OS cells and in the assay on U2OS cells were 141 nM and 172 nM, respectively.

As to `Cc1ccc(NC(=O)c2ccc3c(c2)OCCO3)cc1NC(=O)c1ccc2nc(O[C@@H]3CCN(C)C3)ccc2c1` [Example 49, (R)—N-(5-(2,3-dihydrobenzo[b][1,4]dioxine-6-carboxamido)-2-methylphenyl)-2-((1-methylpyrrolidin-3-yl)oxy)quinoline-6-carboxamide], the half-inhibitory concentration (IC50) in the assay on HSP72 in U2OS cells was 2 nM; with U2OS cells it was 8 nM.

On to `Cc1ccc(NC(=O)c2ccc3c(c2)OCCO3)cc1NC(=O)c1ccc2nc(OC3CCN(C)CC3)ccc2c1` [Example 50, N-(5-(2,3-dihydrobenzo[b][1,4]dioxine-6-carboxamido)-2-methylphenyl)-2-((1-methylpiperidin-4-yl)oxy)quinoline-6-carboxamide], for which the values for the IC50 with HSP72 in U2OS cells and in the assay with U2OS cells were 3 nM and 10 nM, respectively.

`Cc1ccc(NC(=O)c2ccc3c(c2)OCCO3)cc1NC(=O)c1ccc2nc(OCCCN(C)C)ccc2c1` [Example 51, N-(5-(2,3-dihydrobenzo[b][1,4]dioxine-6-carboxamido)-2-methylphenyl)-2-(3-(dimethylamino)propoxy)quinoline-6-carboxamide]: the half-maximal inhibitory concentration (IC50) in the assay on HSP72 in U2OS cells amounted to 4 nM; in the assay with U2OS cells, 10 nM.

On to `Cc1ccc(NC(=O)c2ccc3c(c2)OCCO3)cc1NC(=O)c1ccc2nc(OCCCN3CCCCC3)ccc2c1` [Example 52, N-(5-(2,3-dihydrobenzo[b][1,4]dioxine-6-carboxamido)-2-methylphenyl)-2-(3-(piperidin-1-yl)propoxy)quinoline-6-carboxamide], for which the half-inhibitory concentration (IC50) in the assay with HSP72 in U2OS cells is 12 nM; with U2OS cells, 6 nM.

`Cc1ccc(NC(=O)c2ccc3c(c2)OCCO3)cc1NC(=O)c1ccc2nc(OC[C@@H]3CCCN3C)ccc2c1` [Example 53, (S)—N-(5-(2,3-dihydrobenzo[b][1,4]dioxine-6-carboxamido)-2-methylphenyl)-2-((1-methylpyrrolidin-2-yl)methoxy)quinoline-6-carboxamide]: the concentration for half-maximal inhibition (IC50) with HSP72 in U2OS cells and with U2OS cells was 7 nM in each case.
